In patent US11596615B2, “Compositions and methods for treatment of insulin resistance” (Temple University—Of The Commonwealth System Of Higher …, priority 2016, dated 2023):
Structures can show the parent of a compound that is named as a salt. Where two headings read alike, the source gives them in different places.

What was measured:
[1] = Solubility in water, DMSO and PBS solubility assay; format: physicochemical
Procedure: The title compound was determined to be soluble in water or DMSO at a concentration of at least 10 mM.

[2] = Liver microsome stability, rat; format: in vitro ADME, Rat (pooled Sprague Dawley; male); settings: male, Sprague Dawley; rat liver microsomes, 1 μM compound, 0.5 mg/ml microsomal protein, 37° C., 2 mM NADPH
Procedure: (§1) The stability of the title compound in the presence of liver microsomes was tested at 1 μM compound and 0.5 mg/ml rat or human microsomal protein, at 37° C. with 2 mM NADPH (standard in vitro screening concentrations). […] The “t1/2” values are the maximum time employed for the respective assays.

[3] = Liver microsome stability, human; format: in vitro ADME, Human (pooled male and female); settings: both sexes; human liver microsomes, 1 μM compound, 0.5 mg/ml microsomal protein, 37° C., 2 mM NADPH
Procedure: as §1

[4] = Solution stability in PBS, simulated gastric fluid and simulated intestinal fluid; format: physicochemical; settings: 37° C.
Procedure: The stability of the title compound was tested in the following media, in the following concentrations: (i) 1 μM in mouse (male C57BL/6) plasma, (ii) 1 μM in PBS (with Ca and Mg) (control treatment); (iii) 5 μM in stimulated gastric fluid (SGF; 0.2% NaCl; 84 mM HCl; 0.32% pepsin; pH 1.2); (iv) 5 μM in stimulated intestinal fluid (SIF; 50 mM KP, pH 6.8; 10 mg/ml pancreatin); and (v) 5 μM in PBS (+Ca and Mg) (control treatment). The results are as follows: (i) 1 μM in mouse plasma, t1/2>6 hr at 37° C.; (ii) 1 μM in PBS, t1/2>6 hr at 37° C.; (iii) 5 μM in SGF, t1/2>3 hrs at 37° C.; (iv) 5 μM in SIF, t1/2>3 hrs at 37° C.; and (v) 5 μM in PBS, t1/2>3 hr at 37° C. The “t1/2” values are the maximum time employed for the respective assays.

[5] = Intravenous and oral pharmacokinetic study in mice; format: in vivo; settings: for VSS: dihydrochloride
Procedure: A pharmacokinetic study was conducted with mice (Charles river) (N=3). The animals had free access to water and standard laboratory chow under a controlled 12 hour light-dark cycle. After at least one week of an acclimation period, the mice were administrated a dose of 5 mg/kg of the title compound ((S))-2-amino-6-((3-aminopropyl)amino)hexanoic acid dihydrochloride) intravenously or 10 mg/kg orally. For both intravenous and oral administration, the compound was dissolved in saline. After intravenous administration, blood samples were collected at 10 min, 30 min, 1, 2, 4, 8 and 24 hours. For oral gavage, blood samples were collected at 15 min, 30 min 1, 2, 4, 8 and 24 hours. The blood samples were collected in polythene tubes with heparin sodium 100 unit/mL and centrifuged at 6000×g for 10 min to obtain plasma, which was stored at −20° C. until analysis.
The title compound concentration in mouse plasma was quantitated using an LC/MS/MS (API 4000, AB SCIEX). Briefly, 50 μl mouse plasma was added to 100 μl acetonitrile with internal standard (Diltiazem 10 ng/ml). The mixture was vortexed and centrifuged, and 5 μl supernatant was injected into LC/MS/MS for analysis. The separation was performed on a Waters C18 column (2.1×50 mm, […] particle size). The mobile phase consisted of 0.2% pentafluoropropionic acid in water:acetonitrile by gradient elution. A Sciex API 4000 mass spectroscopy system equipped with an electrospray source in the positive-ion multiple reaction monitoring (MRM) mode was used for detection. The MRM transitions monitored for the title compound and diltiazem were m/z 204.4/84.2 and m/z 415/178, respectively. The retention time is 12.5 min for (S)-2-amino-6-((3-aminopropyl)amino)hexanoic acid and 14 min for diltiazem. The quantitation ranged from 25 to 1000 ng/ml.

[6] = Predicted concentration-time profile for oral dosing in drinking water; settings: 10 mg/kg/day in drinking water, modeled as six oral doses over 12 hrs, plasma
Procedure: The maximum predicted concentration is 0.82 μg/mL and the minimum concentration 0.1 μg/mL. The dose can be adjusted proportionally to achieve the desired concentrations.

db/db mice = assay: Glucose tolerance test in leptin receptor knock-out (db/db) mice; format: in vivo
Procedure: Leptin receptor knock-out (db/db) mice have severe, rapid, spontaneous and early-onset obesity and insulin resistance that is first recognizable at 4 weeks of age. These animals (5 for each group) were used to determine the effect of (S)-2-amino-6-((3-aminopropyl)amino)hexanoic acid dihydrochloride on impaired glucose tolerance at pre-diabetes level. The groups consisted of (i) db/db mice administered 50 mg/kg b.i.d. p.o. (S)-2-amino-6-((3-aminopropyl)amino)hexanoic acid dihydrochloride; (ii) db/db vehicle control-treated mice; and (iii) heterozygous littermate control mice. The treatment period was for 7 days. Glucose tolerance tests were performed as described above.
To determine the effect of (S)-2-amino-6-((3-aminopropyl)amino)hexanoic acid dihydrochloride on impaired glucose tolerance after diabetes is established, 6 week old db/db mice were treated with the drug (50 mg/kg b.i.d. p.o.) for 14 days. The positive control group was treated with metformin at the same dose. […] The results establish that the drug can be used to treat both pre-diabetes, and diabetes wherein the diabetic phenotype has been established.
To assess whether (S)-2-amino-6-((3-aminopropyl)amino)hexanoic acid dihydrochloride delays progression to diabetes or only masks diabetes during treatment period, (i) db/db mice (ii) db/db vehicle control-treated mice; and (iii) heterozygous littermate control mice were treated with and without (S)-2-amino-6-((3-aminopropyl)amino)hexanoic acid dihydrochloride or metformin (50 mg/kg b.i.d. p.o.) for 14 days. The 14 day treatment period was followed by another 14 day period (“wash out period”) in which no treatment was given.

NCCCNCCCC[C@H](N)C(=O)O [APL, (S)-2-amino-6-((3-aminopropyl)amino)hexanoic acid dihydrochloride]
solubility ([1]; DMSO, organic solvent or mixture, read-out: solubility in DMSO): ≥ 10 mM | solubility ([1]; phosphate buffered saline (PBS) without Ca or Mg, aqueous buffer, PBS pH 7.4 without Ca or Mg, 200 μM = maximum concentration tested, read-out: solubility in PBS): > 0.2 mM | solubility ([1]; water, read-out: solubility in water): ≥ 10 mM | half-life at 1 μM [2]: > 1 h | microsomal CLint at 1 μM [2]: < 23 µL/min/mg | half-life at 1 μM [3]: > 1 h | microsomal CLint at 1 μM [3]: < 23 µL/min/mg | half-life at 1 μM ([4]; 1 μM in PBS (with Ca and Mg)): > 6 h | half-life at 5 μM ([4]; 5 μM in PBS (+Ca and Mg)): > 3 h | half-life at 5 μM ([4]; simulated gastric fluid (SGF) with pepsin, 5 μM in SGF (pH 1.2, pepsin)): > 3 h | half-life at 5 μM ([4]; simulated intestinal fluid (SIF) with pancreatin, 5 μM in SIF (pH 6.8, pancreatin)): > 3 h | VSS ([5]; IV, 5 mg/kg): 0.4 L/kg | AUCtot ([5]; IV, 5 mg/kg, plasma): 4.72 μg*hr/m | CL ([5]; PO, 10 mg/kg): 0.285 L/h | VSS ([5]; PO, 10 mg/kg, listed as (S)-2-amino-6-((3-aminopropyl)amino)hexanoic acid dihydrochloride): 2.12 L/kg | VSS ([5]; PO, 10 mg/kg, listed as (S)-2-amino-6-((3-aminopropyl)amino)hexanoic acid): 2.1 L/kg | AUCtot ([5]; PO, 10 mg/kg, plasma): 10.45 μg*hr/m | Cmax ([5]; mouse, IV, 5 mg/kg, plasma): 8360 ng/mL | Cmax ([5]; mouse, PO, 10 mg/kg, plasma): 1440 ng/mL | clearance ([5]; mouse, plasma, IV, 5 mg/kg): 5.17 mL/min | half-life ([5]; mouse, plasma, IV, 5 mg/kg): 2.53 h | Tmax ([5]; mouse, plasma, PO, 10 mg/kg): 3.33 h | half-life ([5]; mouse, plasma, PO, 10 mg/kg): 3.25 h | Vd ([5]; mouse, plasma, iv, 5 mg/kg, IV, 5 mg/kg, read-out: VSS): 0.414 L/kg | bioavailability ([5]; mouse, plasma, oral, 10 mg/kg, PO 10 mg/kg vs IV 5 mg/kg): ~100% | maximum predicted concentration [6]: 0.82 µg/mL | minimum predicted concentration [6]: 0.1 µg/mL | impaired glucose tolerance after diabetes is established (db/db mice; 6 week old db/db mice, 50 mg/kg b.i.d. p.o., 14 days, vs metformin at the same dose, FIG. 11): better in reducing impaired glucose tolerance than metformin | impaired glucose tolerance after wash out period (db/db mice; db/db mice, 50 mg/kg b.i.d. p.o. 14 days, then 14 days no treatment, FIG. 12): still effective in reducing impaired glucose tolerance even after 14 days following treatment removal | impaired glucose tolerance, pre-diabetic stage (db/db mice; pre-diabetic db/db mice, 50 mg/kg b.i.d. p.o., 7 days, FIG. 10): normalizes impaired glucose tolerance
